# Measured values taken from patent US20100160454A1, “ANTIMICROBIAL AGENTS, COMPOSITIONS AND PRODUCTS CONTAINING THE SAME, AND METHODS OF USING THE COMPOSITIONS AND PRODUCTS” (Eastman Chemical Company, priority 2008, published 2010).
# Key:
# Assay in all cases: Microbiological challenge testing in BPW broth, graded subculture counts
# Assay type in all cases: cell-based
# [1] = tested on: Aspergillus niger Wild type; conditions: A. niger
# Summary of the method: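 Wild-type A. niger, grown in TSB with 1% dextrose at 22 °C and on SABD until sporulation, was adjusted to 1.0×10^8 spores/vegetative cells (hemocytometer). It was inoculated in triplicate into BPW with 1% dextrose to give 10^5 to 10^6 CFU/mL at time zero. Counts were by spread plate on SABD, ≥48 h at 22 °C, CFU/mL = count × dilution factor.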
# [2] = tested on: Candida albicans Wild type; conditions: C. albicans
# Summary of the method: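 Wild-type C. albicans grown in TSB with 1% dextrose at 22 °C, then adjusted by turbidity and hemocytometer to a 10^8 CFU/mL challenge confirmed on SABD plates. Challenge added to BPW broth containing 1% dextrose, giving 10^5 to 10^6 CFU/mL at time zero; controls in triplicate. Counts by serial dilution and spread-plating after at least 48 h incubation.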
# [3] = tested on: Proteus vulgaris Wild type
# Summary of the method: (§1)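 Serial 1:10 dilutions were made in pH 7.2 phosphate buffer and spread-plated onto PCA, and colonies were counted after 48 h or more at 35 °C. In the challenge, BPW–dextrose tubes containing the test material received inoculum at 10^5–10^6 CFU/mL at time zero. Controls without test material served as reference.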
# [4] = tested on: Staphylococcus aureus ATCC 25923; conditions: S. aureus
# Summary of the method: as §1
# [5] = tested on: Burkholderia cepacia Wild type; conditions: B. cepacia
# Summary of the method: as §1
smiles,measurement,setting,value
"O=C([O-])CN(CCN(CC(=O)[O-])CC(=O)O)CC(=O)O.[Na+].[Na+] [EDTA, Na2EDTA]",Grade,"[1]; 0.5% (wt/vol), 3 day",4
same,Grade,"[1]; 0.5% (wt/vol), 13 day",4
same,Grade,"[1]; 0.5% (wt/vol), 30 day",4
same,Grade,"[1]; 1.25% (wt/vol), 3 day",2 (Countable (10 to 100 colonies))
same,Grade,"[1]; 1.25% (wt/vol), 13 day",1 (Countable (1 to 10 colonies))
same,Grade,"[1]; 1.25% (wt/vol), 30 day",3
same,Grade,"[1]; 2.5% (wt/vol), 3 day",0
same,Grade,"[1]; 2.5% (wt/vol), 13 day",0
same,Grade,"[1]; 2.5% (wt/vol), 30 day",0
same,Grade,"[1]; 5.0% (wt/vol), 3 day",0
same,Grade,"[1]; 5.0% (wt/vol), 13 day",0
same,Grade,"[1]; 5.0% (wt/vol), 30 day",0
same,Grade,"[2]; 0.5% (wt/vol), 3 day","4 (1000 to 10,000 colonies countable (thus 10,000 CFU/mL to 100,000 CFU/mL))"
same,Grade,"[2]; 0.5% (wt/vol), 14 day","5 (More than 10,000 colonies estimated (thus more than 100,000 CFU/mL))"
same,Grade,"[2]; 0.5% (wt/vol), 30 day","5 (More than 10,000 colonies estimated (thus more than 100,000 CFU/mL))"
same,Grade,"[2]; 1.25% (wt/vol), 3 day","4 (1000 to 10,000 colonies countable (thus 10,000 CFU/mL to 100,000 CFU/mL))"
same,Grade,"[2]; 1.25% (wt/vol), 14 day","4 (1000 to 10,000 colonies countable (thus 10,000 CFU/mL to 100,000 CFU/mL))"
same,Grade,"[2]; 1.25% (wt/vol), 30 day","4 (1000 to 10,000 colonies countable (thus 10,000 CFU/mL to 100,000 CFU/mL))"
same,Grade,"[2]; 2.5% (wt/vol), 3 day",2 (52 to 100 colonies counted (thus 520 to 1000 CFU/mL))
same,Grade,"[2]; 2.5% (wt/vol), 14 day",2 (52 to 100 colonies counted (thus 520 to 1000 CFU/mL))
same,Grade,"[2]; 2.5% (wt/vol), 30 day",2 (52 to 100 colonies counted (thus 520 to 1000 CFU/mL))
same,Grade,"[2]; 5.0% (wt/vol), 3 day",1 (0 to 51 colonies counted (thus 10 to 510 CFU/mL based on 0.1-mL sample))
same,Grade,"[2]; 5.0% (wt/vol), 14 day",0
same,Grade,"[2]; 5.0% (wt/vol), 30 day",0
same,"P. vulgaris growth grade, 3 day",[3]; 0.5% weight/volume,"5 (More than 10,000 colonies estimated (thus more than 100,000 CFU/mL))"
same,"P. vulgaris growth grade, 13 day",[3]; 0.5% weight/volume,"4 (1000 to 10,000 colonies countable (thus 10,000 CFU/mL to 100,000 CFU/mL))"
same,"P. vulgaris growth grade, 30 day",[3]; 0.5% weight/volume,"4 (1000 to 10,000 colonies countable (thus 10,000 CFU/mL to 100,000 CFU/mL))"
same,"P. vulgaris growth grade, 3 day",[3]; 1.25% weight/volume,"3 (100 to 1000 colonies (thus 1000 to 10,000 CFU/mL))"
same,"P. vulgaris growth grade, 13 day",[3]; 1.25% weight/volume,1 (0 to 51 colonies counted (thus 10 to 510 CFU/mL based on 0.1-mL sample))
same,"P. vulgaris growth grade, 30 day",[3]; 1.25% weight/volume,"3 (100 to 1000 colonies (thus 1000 to 10,000 CFU/mL))"
same,"P. vulgaris growth grade, 3 day",[3]; 2.5% weight/volume,"4 (1000 to 10,000 colonies countable (thus 10,000 CFU/mL to 100,000 CFU/mL))"
same,"P. vulgaris growth grade, 13 day",[3]; 2.5% weight/volume,"4 (1000 to 10,000 colonies countable (thus 10,000 CFU/mL to 100,000 CFU/mL))"
same,"P. vulgaris growth grade, 30 day",[3]; 2.5% weight/volume,"4 (1000 to 10,000 colonies countable (thus 10,000 CFU/mL to 100,000 CFU/mL))"
same,"P. vulgaris growth grade, 3 day",[3]; 5.0% weight/volume,"4 (1000 to 10,000 colonies countable (thus 10,000 CFU/mL to 100,000 CFU/mL))"
same,"P. vulgaris growth grade, 13 day",[3]; 5.0% weight/volume,"4 (1000 to 10,000 colonies countable (thus 10,000 CFU/mL to 100,000 CFU/mL))"
same,"P. vulgaris growth grade, 30 day",[3]; 5.0% weight/volume,"4 (1000 to 10,000 colonies countable (thus 10,000 CFU/mL to 100,000 CFU/mL))"
same,Grade,"[4]; 0.5% (wt/vol), 3 day","4 (1000 to 10,000 colonies countable (thus 10,000 CFU/mL to 100,000 CFU/mL))"
same,Grade,"[4]; 0.5% (wt/vol), 14 day","4 (1000 to 10,000 colonies countable (thus 10,000 CFU/mL to 100,000 CFU/mL))"
same,Grade,"[4]; 0.5% (wt/vol), 30 day","4 (1000 to 10,000 colonies countable (thus 10,000 CFU/mL to 100,000 CFU/mL))"
same,Grade,"[4]; 1.25% (wt/vol), 3 day",2.7
same,Grade,"[4]; 1.25% (wt/vol), 14 day",2 (52 to 100 colonies counted (thus 520 to 1000 CFU/mL))
same,Grade,"[4]; 1.25% (wt/vol), 30 day",2 (52 to 100 colonies counted (thus 520 to 1000 CFU/mL))
same,Grade,"[4]; 2.5% (wt/vol), 3 day",1 (0 to 51 colonies counted (thus 10 to 510 CFU/mL based on 0.1-mL sample))
same,Grade,"[4]; 2.5% (wt/vol), 14 day",0.3
same,Grade,"[4]; 2.5% (wt/vol), 30 day",0.3
same,Grade,"[4]; 5.0% (wt/vol), 3 day",0
same,Grade,"[4]; 5.0% (wt/vol), 14 day",0
same,Grade,"[4]; 5.0% (wt/vol), 30 day",0
same,Grade,"[5]; 0.5% (wt/vol), 3 day","4 (1000 to 10,000 colonies countable (thus 10,000 CFU/mL to 100,000 CFU/mL))"
same,Grade,"[5]; 0.5% (wt/vol), 14 day","4 (1000 to 10,000 colonies countable (thus 10,000 CFU/mL to 100,000 CFU/mL))"
same,Grade,"[5]; 0.5% (wt/vol), 30 day","4 (1000 to 10,000 colonies countable (thus 10,000 CFU/mL to 100,000 CFU/mL))"
same,Grade,"[5]; 1.25% (wt/vol), 3 day","3 (100 to 1000 colonies (thus 1000 to 10,000 CFU/mL))"
same,Grade,"[5]; 1.25% (wt/vol), 14 day",2 (52 to 100 colonies counted (thus 520 to 1000 CFU/mL))
same,Grade,"[5]; 1.25% (wt/vol), 30 day",2 (52 to 100 colonies counted (thus 520 to 1000 CFU/mL))
same,Grade,"[5]; 2.5% (wt/vol), 3 day",1 (0 to 51 colonies counted (thus 10 to 510 CFU/mL based on 0.1-mL sample))
same,Grade,"[5]; 2.5% (wt/vol), 14 day",0
same,Grade,"[5]; 2.5% (wt/vol), 30 day",0
same,Grade,"[5]; 5.0% (wt/vol), 3 day",0
same,Grade,"[5]; 5.0% (wt/vol), 14 day",0
same,Grade,"[5]; 5.0% (wt/vol), 30 day",0
"CCCCOCCO [EB, 2-butoxyethanol]",Grade,"[1]; 2.5% (wt/vol), 3 day",4
same,Grade,"[1]; 2.5% (wt/vol), 13 day",4
same,Grade,"[1]; 2.5% (wt/vol), 30 day",4
same,Grade,"[1]; 5.0% (wt/vol), 3 day",2.5
same,Grade,"[1]; 5.0% (wt/vol), 13 day",0
same,Grade,"[1]; 5.0% (wt/vol), 30 day",0
same,Grade,"[2]; 2.5% (wt/vol), 3 day","4 (1000 to 10,000 colonies countable (thus 10,000 CFU/mL to 100,000 CFU/mL))"
same,Grade,"[2]; 2.5% (wt/vol), 14 day","4 (1000 to 10,000 colonies countable (thus 10,000 CFU/mL to 100,000 CFU/mL))"
same,Grade,"[2]; 2.5% (wt/vol), 30 day","4 (1000 to 10,000 colonies countable (thus 10,000 CFU/mL to 100,000 CFU/mL))"
same,Grade,"[2]; 5.0% (wt/vol), 3 day",2 (52 to 100 colonies counted (thus 520 to 1000 CFU/mL))
same,Grade,"[2]; 5.0% (wt/vol), 14 day",0
same,Grade,"[2]; 5.0% (wt/vol), 30 day",0
same,"P. vulgaris growth grade, 3 day",[3]; 2.5% weight/volume,"4 (1000 to 10,000 colonies countable (thus 10,000 CFU/mL to 100,000 CFU/mL))"
same,"P. vulgaris growth grade, 13 day",[3]; 2.5% weight/volume,"4 (1000 to 10,000 colonies countable (thus 10,000 CFU/mL to 100,000 CFU/mL))"
same,"P. vulgaris growth grade, 30 day",[3]; 2.5% weight/volume,"4 (1000 to 10,000 colonies countable (thus 10,000 CFU/mL to 100,000 CFU/mL))"
same,"P. vulgaris growth grade, 3 day",[3]; 5.0% weight/volume,0
same,"P. vulgaris growth grade, 13 day",[3]; 5.0% weight/volume,0
same,"P. vulgaris growth grade, 30 day",[3]; 5.0% weight/volume,0
same,Grade,"[4]; 2.5% (wt/vol), 3 day","4 (1000 to 10,000 colonies countable (thus 10,000 CFU/mL to 100,000 CFU/mL))"
same,Grade,"[4]; 2.5% (wt/vol), 14 day","4 (1000 to 10,000 colonies countable (thus 10,000 CFU/mL to 100,000 CFU/mL))"
same,Grade,"[4]; 2.5% (wt/vol), 30 day","4 (1000 to 10,000 colonies countable (thus 10,000 CFU/mL to 100,000 CFU/mL))"
same,Grade,"[4]; 5.0% (wt/vol), 3 day",2 (52 to 100 colonies counted (thus 520 to 1000 CFU/mL))
same,Grade,"[4]; 5.0% (wt/vol), 14 day",0
same,Grade,"[4]; 5.0% (wt/vol), 30 day",0
same,Grade,"[5]; 2.5% (wt/vol), 3 day","4 (1000 to 10,000 colonies countable (thus 10,000 CFU/mL to 100,000 CFU/mL))"
same,Grade,"[5]; 2.5% (wt/vol), 14 day","4 (1000 to 10,000 colonies countable (thus 10,000 CFU/mL to 100,000 CFU/mL))"
same,Grade,"[5]; 2.5% (wt/vol), 30 day","4 (1000 to 10,000 colonies countable (thus 10,000 CFU/mL to 100,000 CFU/mL))"
same,Grade,"[5]; 5.0% (wt/vol), 3 day",0
same,Grade,"[5]; 5.0% (wt/vol), 14 day",0
same,Grade,"[5]; 5.0% (wt/vol), 30 day",0
